Results as given in PMC12442099 (ACS Infectious Diseases, 2025).
Values after ≈ are worked out from the molar mass of the structure shown.

How the values were obtained:
Type in all cases: cell-based
E. coli BW25113 = test: MIC broth microdilution; conditions: Escherichia coli, CAMHB, median of triplicates, read-out: MIC (μg/mL) E. coli BW25113
Protocol: (§1) The antibacterial activity of the compounds was determined by measuring their minimum inhibitory concentration (MIC) values using the broth microdilution method according to the Clinical and Laboratory Standards Institute guidelines (CLSI). Briefly, a single colony from blood agar plates was inoculated into cation-adjusted Mueller-Hinton broth (CAMHB) and grown to OD600 = 0.5. Next, 10^6 CFU/mL were added to a 2-fold serial dilution series of test compounds and incubated at 37 °C, 600 rpm overnight (18–20 h for Gram-negative strains, 20–24 h for Gram-positive strains), after which the plates were visually inspected for bacterial growth. MICs are reported as the median of triplicates.

E. coli 25922 = test: MIC broth microdilution; conditions: Escherichia coli, CAMHB, median of triplicates, read-out: MIC (μg/mL) E. coli 25922
Protocol: as §1

E. coli TOP10F’ [1] = test: MIC broth microdilution; conditions: Escherichia coli; screening strain; CAMHB, median of triplicates; read-out: MIC (μg/mL) E. coli TOP10F’
Protocol: as §1

S. aureus USA 300 = test: MIC broth microdilution; conditions: Staphylococcus aureus, USA300; clinical isolate; CAMHB, median of triplicates; read-out: MIC (μg/mL) S. aureus USA 300
Protocol: as §1

K. pneumoniae 13883 = test: MIC broth microdilution; conditions: Klebsiella pneumoniae, clinical isolate, CAMHB, median of triplicates, read-out: MIC (μg/mL) K. pneumoniae 13883
Protocol: as §1

P. aeruginosa 27853 = test: MIC broth microdilution; conditions: Pseudomonas aeruginosa, clinical isolate, CAMHB, median of triplicates, read-out: MIC (μg/mL) P. aeruginosa 27853
Protocol: as §1

A. baumanni 9955 = test: MIC broth microdilution; conditions: Acinetobacter baumannii, clinical isolate, CAMHB, median of triplicates, read-out: MIC (μg/mL) A. baumanni 9955
Protocol: as §1

[2] = test system: Rcs cell envelope stress response in Escherichia coli; test: Rcs stress reporter assay, HTS format, dose-response curves; conditions: for Emax: read-out: Max. effect (%); for EC50: read-out: pEC50 (converted)
Protocol: We adapted the reporter assay based on the Rcs stress system for HTS in a screening program at the ELF as the first bacterial phenotypic screen used in this setting. , The assay was performed in a 1536-well format using 25 μM PMBN as a reference (set at 100% effect).
The ELF screened their extensive and diverse library consisting of >500,000 small molecules at a concentration of 10 μM. The assay window (S/B) and Z’ values remained stable (2.0–15.2 and 0.50–0.90, respectively) throughout the screening campaign. The detailed standard screening procedure of the ELF is outlined elsewhere. An overview of the selection process of the screening campaign performed here is outlined in Figure . Initially, 340 compounds with an effect ≥20% of the reference compound PMBN were considered biologically active. Usually, up to 1% of the input library is selected for confirmatory, dose–response, orthogonal and deselection assays. Because the number of biological actives identified in this assay was well below the 1% limit, no orthogonal assays were performed. Instead, all compounds were reordered and tested as dilution series in the Rcs assay to generate dose–response curves (DRCs). Each compound’s pEC50 (−log of EC50, defined as the concentration (mol/L) at which 50% effect is achieved) was determined, and compounds with a pEC50 ≥ 4.7 were selected for further analysis. Next, the compounds were subjected to a mammalian cell-based cytotoxicity assay to exclude toxic compounds that may have a generic effect on membrane integrity. Compounds that reduced mammalian cell viability by 50% were considered cytotoxic. The qualified hit list (QHL) was then generated following triaging based on LC-MS analysis and pEC50 values.
Overnight cultures (ONCs) were prepared by inoculating 5 mL medium from glycerol stocks and incubating the culture for 16–18 h. ONCs were then diluted to an OD600 of 0.05 and grown until an OD600 of 0.3–0.4 was reached.
Assay robustness was confirmed by testing its sensitivity to assay-interfering agents, including colored, aggregating and fluorescent compounds. […] For HTS, bacteria were diluted 50x in prewarmed medium. Fifteen nL of assay compounds (10 μM), DMSO (0.25%), or the reference compound polymyxin B nonapeptide (PMBN) at 25 μM were added to 1536 well plates. Next, 6 μL culture aliquots were added to assay plates containing compounds. Plates were briefly centrifuged for 1 min at 150 x g. Plates were incubated at 37 °C with high humidity and fluorescence (Ex./Em. λ: 485/528 nm) was measured at T = 0 and T = 150 min using a ClarioStar plate reader (BMG Labtech). For data analysis, T = 0 values were subtracted from T = 150 values to calculate Z-score and % effect compared to the reference compound.
Dose–response curves of the 340 initial active compounds were determined following the preparation of serial dilutions (20 nM–20 μM; 7 points, √10). The % effect compared to the reference compound PMBN was calculated and plotted for each compound dilution. The resulting plots were used to calculate pEC50 (-log(EC50), with EC50 being determined as the concentration at which a 50% effect is observed).

E. coli TOP10F’ [3] = test: NPN uptake assay (outer membrane permeability); conditions: 1 h, 10 μM NPN
Protocol: To investigate the effect of our quinolone hits on membrane permeability, we performed a 1-N- phenylnaphthylamine NPN uptake assay (Figure ), as described previously. NPN is a hydrophobic fluorophore that is unable to cross the OM under normal conditions.
6 Effect of compounds (A) A2 and (B) B1 on membrane integrity analyzed by NPN permeability. Polymyxin B was used at 1 μM and PMBN at 4 μM as membrane permeabilizing control compounds. Data represent the average relative fluorescence values of three independent experiments performed in triplicate. Error bars represent standard deviation of three independent experiments. Data were analyzed using a One-Way ANOVA with Dunnett’s multiple comparisons. **: p = 0.0017; ****: p < 0.0001.
ONC of E. coli TOP10F’ grown in LB were diluted to OD600 = 0.1 and subsequently grown until OD600 0.5 was reached. Bacterial cells were then pelleted at 1,000g for 10 min and resuspended in assay buffer (5 mM HEPES + 20 mM glucose, pH 7.2) to 1.0 OD600 units/ml. The cell suspension was then added to a black, clear bottom 96-well plate (Greiner Bio-One) at a final concentration of 0.5 OD600 units/ml. […] NPN fluorescence (Ex./Em. λ 355, 420) was measured after 1h incubation at room temperature. Relative fluorescence was calculated following the correction of NPN fluorescence in the absence of compound: NPNuptake=[Fobs−Fb]/[Fcontrol−Fb]

O=C1COc2ccc(CNC3CCN(CC4Cc5c(F)cc(F)c6ccc(=O)n4c56)CC3)nc2N1 (centres unmarked) [B1]
MIC (E. coli BW25113): 0.25 µg/mL (≈ 0.519 µM)
MIC (E. coli 25922): 0.5 µg/mL (≈ 1.04 µM)
MIC (E. coli TOP10F’ [1]): < 0.03 µg/mL
MIC (S. aureus USA 300): 0.06 µg/mL (≈ 0.125 µM)
MIC (K. pneumoniae 13883): 1 µg/mL (≈ 2.08 µM)
MIC (P. aeruginosa 27853): 8 µg/mL (≈ 16.6 µM)
MIC (A. baumanni 9955): 0.25 µg/mL (≈ 0.519 µM)
Emax [2]: 53.3%
EC50 [2]: 282 nM
NPN relative fluorescence (membrane permeability) (E. coli TOP10F’ [3]): did not exhibit an increase in fluorescence

CC(C)(C)n1cc(C(=O)O)c(=O)c2cc(F)c(N3CC4CC3CN4)nc21 (centres unmarked) [A2]
MIC (E. coli BW25113): 0.06 µg/mL (≈ 0.166 µM)
MIC (E. coli 25922): 0.125 µg/mL (≈ 0.347 µM)
MIC (E. coli TOP10F’ [1]): < 0.03 µg/mL
MIC (S. aureus USA 300): 8 µg/mL (≈ 22.2 µM)
MIC (K. pneumoniae 13883): 0.125 µg/mL (≈ 0.347 µM)
MIC (P. aeruginosa 27853): 1 µg/mL (≈ 2.77 µM)
MIC (A. baumanni 9955): 0.5 µg/mL (≈ 1.39 µM)
Emax [2]: 26.6%
EC50 [2]: 107 nM
NPN relative fluorescence (membrane permeability) (E. coli TOP10F’ [3]): significant increase in relative fluorescence at 4 and 16 μM
